Assay results reported in patent publication US20260091078A1, “OLIGOPEPTIDE THAT INHIBITS ANGIOGENESIS AND VASCULAR FUNCTION” (UNIVERSIDAD NACIONAL AUTONOMA DE MEXICO, priority 2019, published 2026).

How the values were obtained:
BUVEC E6E7 = test: Vasopermeability in vitro: transendothelial electrical resistance (TEER); type: cell-based, bovine; details: BUVEC E6E7 monolayer, 100 nM, 50 ng ml^-1 VEGF, up to 120 minutes
Description: Another conventional protocol to evaluate vasopermeability is the measurement of the transendothelial electrical resistance (TEER), which uses a device that applies an electric current through electrodes at both sides of the endothelial cell monolayer. […] The effect of the oligopeptide THGRGFI on endothelial cell permeability was evaluated by measuring TEER. BUVEC E6E7 were seeded in the TEER device at a density of 10,000 cells cm^−2. After three days, the monolayers were starved in low serum media (0.1% FBS) for 48 hours and after this time, 100 nM of vasoinhibin or of the oligopeptide were added to the upper compartment (luminal surface of the monolayer) for 1 hour. At time 0, TEER was recorded and 50 ng ml^−1 of VEGF were added to the luminal side. The TEER was measured at 10, 20, 30, 60, 90 and 120 minutes. Determinations were performed with the Epithelial Volt/Ohm (TEER) EVOM2 equipment (World Precision Instruments, FL, USA) with a 4 mm ‘chopstick’ electrode. Values were normalized relative to a device with no cells and a monolayer without treatment.

interleukin-1α (IL-1α) = test: Expression of vasoinhibin target gene IL-1α mRNA in BUVEC E6E7 (qPCR); type: cell-based, bovine; details: BUVEC E6E7, 100 nM, 4 hours
Description: (§1) Vasoinhibin induces the expression of a variety of genes via the activation of NF-KB to promote angiostatic and inflammatory effects. In particular, interleukin-1 alpha (IL-1α) and the intercellular adhesion molecule 1 (ICAM1) are vasoinhibin gene targets in the bovine endothelial cells. To evaluate the ability of the oligopeptide […] to induce the expression of IL-1α and ICAM1, BUVEC […] cells were seeded on 12 well plates with F12K-10% FBS, grown to 80% confluency, and starved with low serum (0.1% FBS) culture medium for 24 h. […] After 4 hours the RNA was extracted from the cells using Trizol (Invitrogen, Carlsbad, CA) and retrotranscribed using the High Capacity cDNA Reverse Transcription Kit (Applied Biosystems, Foster City, CA). The RT-PCR products were quantified in a Maxima SYBRgreen qPCR (Thermo Fisher Scientific) 10 μl final volume reaction mixture containing the template and 0.25 μM of each primer. The PCR amplification was done in the CFX96 Real Time PCR (BioRad), comprising a 10-minute denaturalization at 95° C., followed by 35 amplification cycles (95° C. for 10 sec, 58° C. for 30 sec, and 72° C. for 30 sec). […] The PCR data was analyzed by the 2^-ΔΔCT method and the threshold of the cycles (CT) was normalized by the constitutive housekeeping gene cyclophilin A (PPIA). […]

[1] = system: immortalized bovine umbilical-vein endothelial cells (BUVEC E6E7); test: Proliferation of BUVEC E6E7 endothelial cells stimulated with VEGF (EdU click assay); type: cell-based; details: BUVEC E6E7, 50 ng ml^-1 VEGF, 24 hours, 0.001 to 100 nM; read-out: effective dose (EC50) for inhibition of proliferation
Description: On a 96-well plate treated for cell culture, BUVEC E6E7 and HUVEC cells were seeded at a density of ˜14,000 and ˜11,000 cells cm^−2, respectively. BUVEC E6E7 cells were maintained in F12K culture media with 10% (v/v) fetal bovine serum (FBS) and the HUVEC in F12K media supplemented with 20% of FBS, 100 μg ml^−1 heparin and 25 μg ml^−1 of endothelial cell growth supplement (ECGS). After 24 hours, the cells were starved with FBS-reduced media (0.1% of FBS for BUVEC E6E7 and 0.5% for HUVEC) for 16 hours to synchronize cells in phase GO of the reproductive cycle. After this time, FBS and heparin were replenished only to HUVEC. The cells were then treated with vasoinhibin or the oligopeptide THGRGFI in concentrations ranging from 0.001 to 100 nM for 24 hours in the presence of 10 μM of the thymidine analog 5-Ethynyl-2′-deoxyuridine (EdU) and 50 ng ml^−1 VEGF for the BUVEC E6E7 or the combination of 25 ng ml^−1 VEGF and 20 ng ml^−1 bFGF for HUVEC. At the end of the experiment, cells were fixed with 4% paraformaldehyde, permeabilized with 0.5% Triton X-100 in TBS1x, and stained to detect the newly synthetized DNA by the incorporation of EdU using the “click” assay (which involves a copper catalyzed reaction to covalently bind fluorescent azide to the EDU incorporated to DNA). Total DNA was counterstained with Hoechst 33342 and the “click”-stained nuclei were quantified and plotted relative to the total number of Hoechst 33342-stained nuclei.
For the assay, BUVEC E6E7 cells were seeded at a density of ˜14′000 cells cm^−2 in a 96 well plate with F12K with 10% (v/v) FBS. After 24 hours, cells were starved with 0.1% of FBS for GO synchronization for ˜16 hours. Next, the cells were treated with the different oligopeptides in presence of 10 μM of the thymidine analog EdU and 50 ng ml^−1 of VEGF. Finally, the cells were fixed, permeabilized, and stained for the newly synthetized DNA by the EdU incorporation through the ‘click’ assay. The total DNA was stained with Hoechst 33342 and the percentage of ‘click’-stained nuclei over the total nuclei was a measure of proliferation.

[2] = system: intracellular adhesion molecule 1 (ICAM1); test: Expression of vasoinhibin target gene ICAM1 mRNA in BUVEC E6E7 (qPCR); type: cell-based, bovine; details: BUVEC E6E7, 100 nM, 4 hours
Description: as §1

[3] = system: endothelial cell (BUVEC E6E7) monolayer; test: Vasopermeability in vitro: transit of Evans blue linked albumin across endothelial monolayer; type: cell-based, bovine; details: 100 nM, 50 ng ml^-1 VEGF
Description: For evaluating if the oligopeptide THGRGFI conserves the inhibitory properties of vasoinhibin on vascular permeability, the transit of Evans blue linked albumin across an endothelial cell (BUVEC E6E7) monolayer was evaluated as follows:
BUVEC E6E7 cells were seeded over a transwell filter (pore of 0.4 μm) at a density of 10,000 cells cm^−2. After 3 days, the monolayers were starved with low serum (0.1 FBS) for 48 hours. Subsequently, 100 nM of the vasoinhibin or the oligopeptide of the present invention were added to the upper compartment (luminal part) of the transwell support, incubated for 1 hour, and followed by the addition of 50 ng ml^−1 of VEGF. Control (Ctl) was without VEGF, vasoinhibin and the oligopeptide. […] Samples of 50 μl of the abluminal compartment were collected and replaced by fresh PBS at 10, 20, 30 and 60 minutes. The absorbance (620 nm) was measured at all time points using a plate reader iMARK (BioRad). Absorbance values confirmed the transit of Evans blue labeled albumin across the endothelial monolayer.

Substance: Ac-THGRGFI-NH2 [THGRGFI, Thr His Gly Arg Gly Phe Ile]
- effect on VEGF-induced reduction of transendothelial resistance (TEER) (BUVEC E6E7): block the VEGF effect
- fold-change of expression of IL-1α mRNA versus non-treated control (interleukin-1α (IL-1α)): ~30 fold
- EC50 [1]: ~1 nM
- fold-change of expression of ICAM1 mRNA versus non-treated control [2]: ~13 fold
- inhibition of VEGF-induced endothelial permeability (Evans blue-albumin transit) [3]: inhibited the VEGF-induced increase in endothelial permeability
